The record followed here is US11535597B2, “Photoreactive ligands and uses thereof” (The Scripps Research Institute, priority 2017, dated 2022).

SMILES strings stand for the structures. Entries after “also recorded” stand apart in the source; their conditions may differ.

For one assay, the target named is T1, PPARγ (Homo sapiens, UniProt P37231).
T1 construct: expressed in transfected cells; host or cells: HEK293T
T1 sequence (P37231 238-503 limits assumed): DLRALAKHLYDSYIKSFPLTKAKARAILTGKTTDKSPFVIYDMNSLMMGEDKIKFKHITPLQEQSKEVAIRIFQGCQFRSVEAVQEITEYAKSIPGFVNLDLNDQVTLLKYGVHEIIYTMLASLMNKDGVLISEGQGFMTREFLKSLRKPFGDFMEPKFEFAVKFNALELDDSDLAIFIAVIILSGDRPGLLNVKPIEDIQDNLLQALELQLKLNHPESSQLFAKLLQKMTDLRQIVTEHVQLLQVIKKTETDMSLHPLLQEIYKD
Nature of the assay: GAL4-PPARγ luciferase reporter assay with empty control vector in HEK293T cells. Particulars: GAL4-PPARγ luciferase reporter and empty control vector. The assay is classed as cell-based. The method, then:
HEK293T cells were transiently co-transfected using Polyethylenimine (Sigma) with a UAS-Luciferase reporter and a vector expressing the heterologous GAL4 DNA binding domain (DBD) or a GAL4 DNA binding domain::PPARγ ligand binding domain (LBD) chimeric protein, and full-length PTGR2. 24 hr after transfection, cells were treated either with vehicle (DMSO), 15k-PGE2 (20 μM), or fragment compounds. Rosiglitazone (2 μM), a synthetic PPARγ ligand, was used as control. 16 hr after incubation, cells were lysed in Cell Culture Lysis Reagent (Promega) and luciferase activity measured using the Luciferase Assay System (Promega).

The target in the next assay is T2, cathepsin B (CTSB) (Homo sapiens, UniProt P07858).
T2 construct: endogenous in cells; host or cells: HEK293T
Briefly: Mapping and competition of FFF probe-modified peptide on cathepsin B (CTSB). The assay is classed as binding. The following applies: active-site proximal peptide. The method, then:
Preparation and analysis was adapted from methods previously reported. In brief, for global mapping of fragment probe-modified peptides, separate 10 cm dishes of cells were treated with probes (200-250 μM) in 3.0 mL of DMEM (serum-free) and (if applicable) competitor ligands, proteomes harvested and subjected to click chemistry conditions with either light or heavy isotopically labeled biotin-TEV-azide (10 μL of 5 mM stocks in DMSO, final concentration=100 μM), TCEP, ligand and CuSO4 as detailed above. The samples were allowed to react for 1 h at which point the samples were centrifuged (16,000 g, 5 min, 4° C.). The resulting pellets were sonicated in ice-cold methanol (500 μL) and the resuspended light- and heavy-labeled samples were then combined and centrifuged (16,000 g, 5 min, 4° C.). The pellets were then solubilized in PBS containing 1.2% SDS (1 mL) with sonication and heating (5 min, 95° C.). Samples were transferred to falcon tubes containing DPBS (5 mL), to which a 100 μL of streptavidin-agarose beads slurry was added. […]
The resulting probe-modified peptides were collected for MS analysis, which was performed as described above with differences in the salt bumps applied in the chromatographic gradients which in this case were 0%, 30%, 60%, 90% and 100% NH4OAc (500 μM). […] The isoTOP ratios for probe labeled peptides were quantified using the in-house software CIMAGE. […]

Regarding `COc1ccccc1N1CCN(C(=O)Cc2ccccc2)CC1` [Compound 22, 1-(4-(2-Methoxyphenyl)piperazin-1-yl)-2-phenylethan-1-one], on PPARγ, the “direct modulation of PPARγ transcriptional activity” value is “do not directly induce; also recorded: Neither 22 nor 23 directly modulated”.

`C#CCCC1(CCC(=O)Nc2ccc(C3CCNCC3)cc2)N=N1` [probe 9, 3-(3-(But-3-yn-1-yl)-3H-diazirin-3-yl)-N-(4-(piperidin-4-yl)phenyl)propanamide]: at cathepsin B (CTSB), the “probe-modified peptide in CTSB” value was “aa 315-332”.
